Laboratory results taken from EP1357114A1, “Substituted pyrimidin-2,4(1H,3H)-diones as inhibitors of Matrix Metalloproteinases (MMP)” (IBFB GmbH Privates Institut für biomedizinische Forschung …, priority 2002, dated 2003).

Key:
[1] = biological target: T1, katalytische Domäne der MT1-MMP (Homo sapiens, UniProt P50281); assay: Quantitative fluorescence assay for matrix metalloproteinases (cleavage of Mca-Pro-Leu-Gly-Leu-Dpa-Ala-Arg-NH2); assay type: biochemical
T1 construct: Die katalytische Domäne der humanen MT1-MMP wurde nach den Angaben in folgender Publikation kloniert; made in house
Description: Die katalytische Domäne der humanen MT1-MMP wurde nach den Angaben in folgender Publikation kloniert: Lichte A, Kolkenbrock H, Tschesche H: The recombinant catalytic domain of membrane-type matrix metalloproteinase-1 (MT1-MMP) induces activation of progelatinase A and progelatinase A complexed with TIMP-2. FEBS letters (1996), 397, 277-282.
Nach Rückfaltung des Enyzms, Autoprozessierung zur aktiven Form und Gelfiltration an Sephadex G-50 (Laufpuffer 20 mM Tris-HCI pH 7,5, 5 mM CaCl2, 100 mM NaCI, 0,1 mM ZnCl2, 0,02% (w/v) Natriumazid) erhielten wir ein zu 95% reines Präparat.
(§1) Durch enzymatische Spaltung des synthetischen Substrates Mca-Pro-Leu-Gly-Leu-Dpa-Ala-Arg-NH2 durch die jeweilige Kollagenase, wird die fluoreszente Gruppe Mca ((7-Methoxycoumarin-4-yl)acetyl) vom internen Quencher Dpa ((N-3-(2,4-dinitrophenyl)-L-2,3-diaminopropienyl) getrennt. Dabei erfolgt eine starke Zunahme der Fluoreszenz im Messansatz, die am Fluorimeter quantifiziert werden kann (λex 328 nm, λem 393 nm) und innerhalb der ersten Minuten linear verläuft. Eine gewisse Spezifität des Tests für Matrix-Metalloproteinasen ergibt sich einerseits aus der Aminosäuresequenz -Pro-Leu-Gly-Leu- im Substrat und andererseits durch die gewählten Inkubationsbedingungen. Matrix-Metalloproteinasen spalten das Substrat an der Bindung Gly-Leu. Gemessen wird die proteolytische Restaktivität vorinkubierter Ansätze von Enzym und Inhibitor, wobei die Substrat- und Enzymkonzentration konstant gehalten und die Inhibitorkonzentration variiert wurde. Es wurden für jeden getesteten Inhibitor drei Messreihen mit unterschiedlicher Substratkonzentration aufgenommen. Aus der zeitabhängigen Fluoreszenzzunahme wird die Enzymaktivität in Fluoreszenzeinheiten pro min berechnet. Die Bestimmung der Ki-Werte erfolgte graphisch nach der Methode von DIXON (1953) durch Auftragung der reziproken Reaktionsgeschwindigkeit 1/v (y-Achse) gegen Inhibitorkonzentration (x-Achse).
(§2) 1984 µl Messpuffer (100mM Tris-HCI pH 7,5, 100 mM NaCI, 10 mM CaCl2, 0,05% Brij 35 bzw. 50 mM MES-NaOH, pH 6.0, 10 mM CaCl2, 100 mM NaCI, 0.05% Brij 35 im Fall der KaDo MMP-3) 2 µl Inhibitor, gelöst in DMSO, bzw. DMSO allein (nichtinhibierender Ansatz) 4 µl Enzym • 5 min. Vorinkubation des Enzym-Inhibitor-Gemischs bei Raumtemperatur unter Rühren • Start der Reaktion mit 10 µl Substrat gelöst in DMSO • Aufzeichnung der zeitabhängigen Fluoreszenzzunahme über 2 - 10 min.

MMP-2 = biological target: T2, MMP-2 (Homo sapiens, UniProt P08253); assay: as above; assay type: biochemical
T2 construct: endogenous in cells; host or cells: cultured human dermal fibroblasts (secreted into conditioned medium)
T2 sequence (P08253 110-660): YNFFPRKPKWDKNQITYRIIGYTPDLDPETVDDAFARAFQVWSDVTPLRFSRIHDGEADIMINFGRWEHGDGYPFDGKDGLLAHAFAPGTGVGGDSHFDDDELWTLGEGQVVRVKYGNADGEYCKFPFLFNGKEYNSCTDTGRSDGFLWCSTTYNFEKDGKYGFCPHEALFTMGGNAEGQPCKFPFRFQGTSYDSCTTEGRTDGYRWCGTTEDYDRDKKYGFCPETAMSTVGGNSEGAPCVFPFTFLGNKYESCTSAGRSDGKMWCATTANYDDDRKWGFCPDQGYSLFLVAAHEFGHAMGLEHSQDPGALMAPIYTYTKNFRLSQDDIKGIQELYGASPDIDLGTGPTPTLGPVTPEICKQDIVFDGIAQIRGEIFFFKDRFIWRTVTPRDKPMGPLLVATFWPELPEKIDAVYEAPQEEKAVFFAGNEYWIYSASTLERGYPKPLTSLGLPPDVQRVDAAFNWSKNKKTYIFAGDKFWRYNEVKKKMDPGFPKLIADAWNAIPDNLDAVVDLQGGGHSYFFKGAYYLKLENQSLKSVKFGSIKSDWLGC
Description: MMP-2 (Gelatinase) wird von kultivierten dermalen Fibroblasten in beträchtlichen Mengen in das Kulturmedium abgegeben und ist daher leicht zugänglich. Die sezernierte und inaktive Proform des Enzyms wird durch Behandlung mit organischen Quecksilberverbindungen in die enzymatisch aktive Form überführt.
Hierzu werden humane dermale Fibroblasten nach etablierten Standardmethoden gewonnen und kultiviert. Aus dem konditionierten Zellmedium wird humane MMP-2 durch folgende Methode gewonnen: 500 ml Zellmedium werden 30 min. bei 10 000 g zentrifugiert und der Überstand mit einem Vol. 2-fach Bindungspuffer (40 mM Tris-HCI pH 7,5 , 10 mM CaCl2, 1 M NaCI, 0,2% (v/v) Triton X-100) versetzt. Dazu gibt man 6 ml Gelatine-Agarose, welche mit Bindungspuffer äquilibriert wurde, und schüttelt für 1 Std. auf Eis. Die beladene Gelatine-Agarose wird in eine Säule überführt und mit mindestens 10 Vol. Bindungspuffer proteinfrei gespült. Die Elution der gebundenen MMP-2 erfolgt mit 2 Gelvolumen Bindungspuffer plus 5% (v/v) DMSO. Das Eluat enthält die humane MMP-2 als inaktives Zymogen in stark angereicherter Form. Fremdproteine sind TIMP-2 und Fibronektin; das letztere kann durch eine Gelfiltration an Sephacryl S-200 abgetrennt werden. Laufpuffer ist 100 mM Tris-HCI pH 7,5, 10 mM CaCl2, 100 mM NaCI, 0,05% (v/v) Brij 35. Die inaktive humane MMP-2 wird durch zweistündige Inkubation bei 37 °C in Gegenwart von 1 mM p-Aminophenylmercuric Acetate (APMA) aktiviert. Zur Beseitigung von APMA nach Aktivierung wird die Probe an Sephadex G-25 in Laufpuffer (s.o.) filtriert.
as §1, §2

[2] = result in words, concentration not given

Row | Structure (SMILES) | MT1-MMP Hemmung ([1]; bei 10 µM) | MMP-2 Hemmung (MMP-2; bei 10 µM) | other results
1 | O=c1[nH]c2ccccc2c(=O)n1CC(S)CS (racemic) [Beispiel 1, (R,S)-3-(2,3-Dimercaptopropyl)chinazolin-2,4-(1H,3H)dion] | 40% Hemmung bei 10 µM | 70% Hemmung bei 10 µM | –
2 | O=c1[nH]c2cc(Cl)ccc2c(=O)n1CC(S)CS (racemic) [Beispiel 3, (R,S)-7-Chlor-3-(2,3-dimercaptopropyl)chinazolin-2,4-(1H,3H)dion] | 73% Hemmung bei 10 µM | 90% Hemmung bei 10 µM | –
3 | COc1cc2[nH]c(=O)n(CC(S)CS)c(=O)c2cc1OC (racemic) [Beispiel 7, (R,S)-3-(2,3-Dimercaptopropyl)-6,7-dimethoxy-chinazolin-2,4-(1H,3H)dion] | – | – | MT1-MMP Hemmung [1, 2]: keine Hemmung; MMP-2 Hemmung (MMP-2; bei 1 µM): 20% Hemmung bei 1 µM
4 | O=C(NCc1ccccc1)c1ccc2c(=O)n(CC(S)CS)c(=O)[nH]c2c1 (racemic) [Beispiel 8, (R,S)-N-Benzyl-3-(2,3-dimercaptopropyl)-2,4-dioxo-1,2,3,4-tetrahydrochinazolin-7-carboxamide] | – | – | MT1-MMP Hemmung ([1]; bei 5 µM): 30% Hemmung bei 5 µM; MMP-2 Hemmung (MMP-2; bei 5 µM): 50% Hemmung bei 5µM
5 | O=c1[nH]c2ccsc2c(=O)n1CC(S)CS (racemic) [Beispiel 9, (R,S)-3-(2,3-Dimercaptopropyl)thieno[3,2-d]pyrimidin-2,4(1H,3H)-dion] | – | – | MT1-MMP Hemmung ([1]; bei 3 µM): 50% Hemmung bei 3 µM; MMP-2 Hemmung (MMP-2; bei 3 µM): 50% Hemmung bei 3 µM
6 | O=c1[nH]c2sc(-c3ccccc3)cc2c(=O)n1CC(S)CS (racemic) [Beispiel 11, (R,S)-3-(2,3-Dimercaptopropyl)-6-phenylthieno[2,3-d]pyrimidin-2,4(1H,3H)-dion] | – | – | MT1-MMP Hemmung [1, 2]: Keine Hemmung; MMP-2 Hemmung (MMP-2; bei 1 µM): 15% Hemmung bei 1 µM

Continued, in another order:

Row | MT1-MMP Hemmung ([1]; bei 10 µM) | MMP-2 Hemmung (MMP-2; bei 10 µM) | Structure (SMILES) | other results
7 | 60% Hemmung bei 10 µM | 50% Hemmung bei 10 µM | O=c1[nH]c2ccc(Cl)cc2c(=O)n1CC(S)CS (racemic) [Beispiel 4, (R,S)-6-Chlor-3-(2,3-dimercaptopropyl)chinazolin-2,4-(1H,3H)dion] | –
8 | 80% Hemmung bei 10 µM | 50% Hemmung bei 10 µM | Cc1cccc2[nH]c(=O)n(CC(S)CS)c(=O)c12 (racemic) [Beispiel 5, (R,S)-3-(2,3-Dimercaptopropyl)-5-methyl-chinazolin-2,4-(1H,3H)dion] | –
9 | 42% Hemmung bei 10 µM | 52% Hemmung bei 10 µM | O=c1[nH]c2sc3c(c2c(=O)n1CC(S)CS)CCCC3 (racemic) [Beispiel 10, (R,S)-3-(2,3-Dimercaptopropyl)-5,6,7,8-tetrahydro[1]benzothieno[2,3-d]pyrimidin-2,4(1H,3H)-dion] | –
